The values that follow come from US20230144023A1, “USE OF BUTYLPHTHALIDE AND DERIVATIVE THEREOF” (CSPC NBP PHARMACEUTICAL CO., LTD, priority 2020, published 2023).

Each structure is given as a SMILES string. Values joined by “and” are separate entries in the source; they are usually repeats but may differ in a detail not shown here. Equal entries are not always repeated.

In series [1] the test system is MM.1S, Jeko-1, HT29, A549, DU145. Kind of series: In vitro proliferation of 5 cell strains, summary statements (Example 7). The series is classed as cell-based, Human. The conditions noted are these: Homo sapiens; range over MM.1S, Jeko-1, HT29, A549, DU145; combined therapy with 30 μM NBP. How it is done:
Different drug concentration gradients were set for each group.
Monotherapy group of NBP: NBP was 2× serially diluted from an initial concentration of 480 μM to 8 concentrations: 480, 240, 120, 60, 30, 15, 7.5, and 3.75 μM, respectively.
The action time of the drug was 72 h.
3 replicate wells were set for each concentration of each drug, and blank wells (only culture medium was present, and no tumor cells were inoculated) and normal wells (a culture medium inoculated with tumor cells, drug concentration was 0) were set.

For another series, the system named is MM.1S xenograft tumor. Kind of series: Influence of NBP on in vivo anti-tumor efficacy of Bortezomib, MM.1S xenograft (Example 8). Also noted: species or system Nu/Nu mice. As for the experimental part: After in vitro resuscitation and passage of MM.1S cells to a sufficient amount, the cells were counted by a microscope, and diluted with a serum-free medium to adjust the cell count to about 1×10^8 cells/mL. The cell suspension was kept in an ice-water bath. The MM.1S cell suspension was extracted by a sterile syringe and inoculated into the subcutaneous tissue of the forelimb axilla of the Nu/Nu mice. […] Monotherapy group of Palbociclib: intragastric administration at 70 mg/kg, qd (the administration was commenced on day 0); […] The solvent group was given the solvent at the same frequency and with the same administration method as Bortezomib and NBP. The administration period was 16 days, and the administration volume was 10 mL/kg. […] Animals were weighed at set time once per day after the commencement of administration. After animals were grouped, the long diameter and the short diameter of the tumor were measured twice every week. […] V=1⁄2×A×B^2 […] (4) Tumor growth inhibition rate: Note: V: tumor volume; A: tumor length; B: tumor width; RTV: relative tumor volume; TVnd: tumor volume on day n; TV0d: tumor volume on day 0; […]: mean relative tumor volume on day n; TVXn: mean tumor volume of the therapy group on day n; TVX0: mean tumor volume of the therapy group on day 0; TVMn: mean tumor volume of the solvent group on day n; and TVM0: mean tumor volume of the solvent group on day 0 At the end of the experiment, after the animals were euthanized by CO2 asphyxiation, the tumors were excised and weighed.

Series [2] in a line: PK of Bortezomib and butylphthalide in plasma of MM.1S tumor-bearing mice (Example 8). The series is classed as in vivo, Nu/Nu mice. As for the experimental part: Monotherapy group of Bortezomib: administered by intraperitoneal injection at 0.5 mg/kg, biw (on days 0, 3, 7, 10, and 15);
Monotherapy group of NBP: administered by transoral gavage at 60 mg/kg, bid (the administration was commenced on day 0), and the second dose of NBP was administered with an interval from the first dose of ≥4 h;
Monotherapy group of Palbociclib: intragastric administration at 70 mg/kg, qd (the administration was commenced on day 0);
Combined therapy group of NBP/Bortezomib: the administration frequency and dose were the same as the frequency and dose of the monotherapy group of NBP and the monotherapy group of Bortezomib, respectively.
Combined therapy group of Bortezomib/Palbociclib: the administration frequency and dose were the same as the frequency and dose of the monotherapy group of Bortezomib and the monotherapy group of Palbociclib, respectively.
Combined therapy group of NBP/Bortezomib/Palbociclib: the administration frequency and dose were the same as the frequency and dose of the monotherapy group of NBP, the monotherapy group of Bortezomib, and the monotherapy group of Palbociclib, respectively.
Before administration of the last dose of Bortezomib (0 h), and 5 min, 15 min, 30 min, 1 h, 2 h, 4 h, 8 h, 24 h after the administration, blood was sampled (as detailed in Table 8) (except that blood was sampled from the mice in the solvent group only at 0 h), anticoagulated with heparin, and centrifuged to separate plasma, which was stored at −80° C. for later use. Bortezomib and butyphthalide in the plasma were determined by protein precipitation-LC/MS/MS.

The conditions of series [3]: cited from earlier work.
Where [4] appears, read: day 14, Bor 0.5 mg/kg, Pal 70 mg/kg, NBP 60 mg/kg, alone or combined.
Setting [5] is: day 14, Bor 0.5 mg/kg, Pal 70 mg/kg, NBP 60 mg/kg, alone or combined, mean, n=6.
Where [6] appears, read: Bor 0.5 mg/kg i.p., Pal 70 mg/kg, NBP 60 mg/kg, mean ± SD, n=6.

As usually defined, the IC50 is the concentration that inhibits the measured activity by half. Broadly, the Cmax is the maximum level reached in the sampled fluid or tissue. As to `CC(C)C[C@H](NC(=O)[C@H](Cc1ccccc1)NC(=O)c1cnccn1)B(O)O` [Bortezomib], the half-maximal inhibitory concentration (IC50) is 1 to 20 nM in series [1]; 2.55 nM and 2.94 nM and 2.99 nM and 2.83 nM with MM.1S; 4.83 nM and 3.51 nM and 4.47 nM and 4.27 nM in the series on Jeko-1; 4.43 nM and 4.97 nM and 5.65 nM and 5.02 nM in the series on HT29; 11.8 nM and 13.3 nM and 10.6 nM and 11.9 nM with A549; 12.8 nM and 11.9 nM and 17.1 nM and 13.9 nM in the series on DU145. For the same molecule, the T/C % in the series on MM.1S xenograft tumor (setting [4]) amounted to 98.0%. Moreover, the TGI % in the series with MM.1S xenograft tumor (setting [4]) is listed as 8.7%. Moreover, the RTV in the series on MM.1S xenograft tumor (setting [5]) stood at 9.6. In the series with MM.1S xenograft tumor (setting [5]), the TV came to 1124.8 mm^3. Further, the “Tumor weight inhibition rate” value in the series with MM.1S xenograft tumor (end of experiment, Bor 0.5 mg/kg, Pal 70 mg/kg, NBP 60 mg/kg, alone or combined) stood at 22.2%. In the series on MM.1S xenograft tumor (end of experiment, Bor 0.5 mg/kg, Pal 70 mg/kg, NBP 60 mg/kg, alone or combined, mean, n=6, in g (unit assumed)), the Tumor weight was determined as 1.282. Also, the “body weights of the mice” value with MM.1S xenograft tumor (mouse, in vivo) is given as “no significant difference”. Also, the “CI of Bortezomib” value in [2] (setting [6]) came to 30.2 ± 9.33 mL/min/kg. In addition, in series [2] (setting [6]), the “Vd of Bortezomib” value is reported as 14.2 ± 3.2 L/kg. In addition, the “influence of Bortezomib on the pharmacokinetic behavior of NBP in mice” value in series [2] (Bortezomib 0.5 mg/kg) is reported as “substantially did not affect”. In addition, the AUC(0-t) in series [2] (Nu/Nu, mouse, plasma, ip, Bor 0.5 mg/kg i.p., Pal 70 mg/kg, NBP 60 mg/kg, mean ± SD, n=6, read-out: AUC0-t of Bortezomib in plasma) is 290 ± 104 ng·h/mL. In series [2] (Nu/Nu, mouse, plasma, ip, Bor 0.5 mg/kg i.p., Pal 70 mg/kg, NBP 60 mg/kg, mean ± SD, n=6, read-out: MRT0-t of Bortezomib), the MRT last was 5.9 ± 0.8 h. Moreover, the half-life in series [2] (Nu/Nu, mouse, plasma, ip, Bor 0.5 mg/kg i.p., Pal 70 mg/kg, NBP 60 mg/kg, mean ± SD, n=6, read-out: t1/2 of Bortezomib in plasma (converted)) was 56.6 ± 1.16 h. For the same molecule, the Cmax in [2] (Nu/Nu, mouse, plasma, ip, after last Bortezomib dose, Bor 0.5 mg/kg i.p., Pal 70 mg/kg, NBP 60 mg/kg, mean ± SD, n=6, read-out: Cmax of Bortezomib in plasma) was 113 ± 8 ng/mL. The “patients still having clinically significant neuropathy” value in [3] (2-3 months after treatment) is given as 60-85%. In addition, the “additional patients with moderate to severe neurotoxicity” value in series [3] (human, in vivo) is listed as roughly 30%. Further, the “patients with severe painful sensory neuropathy” value in series [3] (human, in vivo) was 50%.
